Measured values as given in PubChem BioAssay AID248 (DTP/NCI, 2004).
Inconclusive results and toxic doses are left out. Cut-off read from the data, not from the text of the source: active = T/C of 150% or more; inactive = T/C below 125%.

Test system: L1210 leukemia ip in BDF1 mice, survival T/C
Test: NCI In Vivo Anticancer Drug Screen. Data for tumor model L1210 Leukemia (intraperitoneal) in B6D2F1 (BDF1) mice
Conditions: endpoint: mean survival time, higher = longer survival
Method in brief: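 Ratio derived from survival: compound-dosed mice over vehicle-dosed mice, all bearing a transplantable tumor.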

[1] = dose: 100.0 mg/kg/injection, schedule: Q01DX001 (ip), vehicle: carboxymethylcellulose (CMC)
[2] = dose: 200.0 mg/kg/injection, schedule: Q01DX001 (ip), vehicle: carboxymethylcellulose (CMC)
[3] = dose: 400.0 mg/kg/injection, schedule: Q01DX001 (ip), vehicle: carboxymethylcellulose (CMC)
[4] = dose: 100.0 mg/kg/injection, schedule: Q04DX002 (ip), vehicle: Klucel (hydroxypropylcellulose) (HPC)
[5] = dose: 400.0 mg/kg/injection, schedule: Q04DX002 (ip), vehicle: Klucel (hydroxypropylcellulose) (HPC)
[6] = dose: 100.0 mg/kg/injection, schedule: Q01DX009 (ip), vehicle: Klucel (hydroxypropylcellulose) (HPC)
[7] = dose: 200.0 mg/kg/injection, schedule: Q01DX009 (ip), vehicle: Klucel (hydroxypropylcellulose) (HPC)
[8] = dose: 400.0 mg/kg/injection, schedule: Q01DX009 (ip), vehicle: Klucel (hydroxypropylcellulose) (HPC)

Measured: T/C

CC1CCCC1OC(=O)c1ccc([N+](=O)[O-])cc1 (stereo not given)
inactive: [1] 104 % of control | [2] 102 % of control | [3] 93 % of control

CCCCN(C)/N=N/c1nn[nH]n1
inactive: [4] 92 % of control | [5] 113 % of control

CC(=O)N1C(=O)NC(=O)C1(CSCc1ccccc1)CSCc1ccccc1
inactive: dose: 50.0 mg/kg/injection, schedule: Q01DX005 (ip), vehicle: saline 104 % of control | dose: 100.0 mg/kg/injection, schedule: Q01DX005 (ip), vehicle: saline 98 % of control | dose: 200.0 mg/kg/injection, schedule: Q01DX005 (ip), vehicle: saline 110 % of control | dose: 400.0 mg/kg/injection, schedule: Q01DX005 (ip), vehicle: saline 94 % of control

S=P1(c2ccccc2)Nc2ccccc2N1c1ccccc1 (stereo not given)
inactive: dose: 100.0 mg/kg/injection, schedule: Q04DX002 (ip), vehicle: DMSO 114 % of control | dose: 200.0 mg/kg/injection, schedule: Q04DX002 (ip), vehicle: DMSO 86 % of control

CCOC(=O)C(=O)Nc1ncn[nH]1
inactive: dose: 100.0 mg/kg/injection, schedule: Q01DX005 (ip), vehicle: Klucel (hydroxypropylcellulose) (HPC) 95 % of control | [6] 96 % of control | [4] 96 % of control | dose: 200.0 mg/kg/injection, schedule: Q01DX005 (ip), vehicle: Klucel (hydroxypropylcellulose) (HPC) 98 % of control | [7] 104 % of control | dose: 200.0 mg/kg/injection, schedule: Q04DX002 (ip), vehicle: Klucel (hydroxypropylcellulose) (HPC) 90 % of control | dose: 400.0 mg/kg/injection, schedule: Q01DX005 (ip), vehicle: Klucel (hydroxypropylcellulose) (HPC) 103 % of control | [8] 93 % of control | [5] 101 % of control

COC(=O)C(Br)C(Br)N1C(=O)c2ccccc2C1=O (stereo not given)
inactive: [6] 98 % of control | dose: 100.0 mg/kg/injection, schedule: Q04DX003 (ip), vehicle: Klucel (hydroxypropylcellulose) (HPC) 102 % of control | [7] 96 % of control | dose: 200.0 mg/kg/injection, schedule: Q04DX003 (ip), vehicle: Klucel (hydroxypropylcellulose) (HPC) 105 % of control | [8] 102 % of control | dose: 400.0 mg/kg/injection, schedule: Q04DX003 (ip), vehicle: Klucel (hydroxypropylcellulose) (HPC) 97 % of control

COc1ccccc1CN1CCCN(Cc2ccccc2OC)C1
inactive: [1] 97 % of control | [2] 105 % of control | [3] 97 % of control

Cc1ccc(S(=O)(=O)N(c2ccccc2-c2ccccc2)C(C)C(=O)O)cc1 (stereo not given)
inactive: dose: 100.0 mg/kg/injection, schedule: Q01DX001 (ip), vehicle: saline 98 % of control | dose: 200.0 mg/kg/injection, schedule: Q01DX001 (ip), vehicle: saline 103 % of control | dose: 400.0 mg/kg/injection, schedule: Q01DX001 (ip), vehicle: saline 102 % of control

CC(=O)OCC(=O)[C@@]1(O)CC[C@H]2[C@@H]3CCC4=CC(=O)CC[C@]4(C)[C@H]3[C@@H](O)C[C@@]21C
inactive: dose: 1.13 mg/kg/injection, schedule: Q01DX Z (sc), vehicle: steriod suspending solution 102 % of control | dose: 2.25 mg/kg/injection, schedule: Q01DX Z (sc), vehicle: steriod suspending solution 107 % of control | dose: 4.5 mg/kg/injection, schedule: Q01DX Z (sc), vehicle: steriod suspending solution 102 % of control | dose: 9.0 mg/kg/injection, schedule: Q01DX Z (sc), vehicle: steriod suspending solution 101 % of control | dose: 25.0 mg/kg/injection, schedule: Q01DX Z (sc), vehicle: steriod suspending solution 87 % of control | dose: 50.0 mg/kg/injection, schedule: Q01DX Z (sc), vehicle: steriod suspending solution 102 % of control | dose: 100.0 mg/kg/injection, schedule: Q01DX009 (ip), vehicle: saline with Tween-80 105 % of control | dose: 100.0 mg/kg/injection, schedule: Q01DX Z (sc), vehicle: steriod suspending solution 106 % of control | dose: 100.0 mg/kg/injection, schedule: Q04DX003 (ip), vehicle: saline with Tween-80 104 % of control | dose: 200.0 mg/kg/injection, schedule: Q01DX009 (ip), vehicle: saline with Tween-80 104 % of control | dose: 200.0 mg/kg/injection, schedule: Q01DX009 (sc), vehicle: other 104 % of control | dose: 200.0 mg/kg/injection, schedule: Q01DX Z (sc), vehicle: steriod suspending solution 110 % of control | dose: 200.0 mg/kg/injection, schedule: Q04DX003 (ip), vehicle: saline with Tween-80 99 % of control | dose: 400.0 mg/kg/injection, schedule: Q01DX001 (sc), vehicle: steriod suspending solution 92 % of control | dose: 400.0 mg/kg/injection, schedule: Q01DX009 (ip), vehicle: saline with Tween-80 98 % of control | dose: 400.0 mg/kg/injection, schedule: Q01DX009 (sc), vehicle: other 102 % of control | dose: 400.0 mg/kg/injection, schedule: Q04DX003 (ip), vehicle: saline with Tween-80 100 % of control | dose: 600.0 mg/kg/injection, schedule: Q01DX009 (sc), vehicle: other 96 % of control | dose: 800.0 mg/kg/injection, schedule: Q01DX001 (sc), vehicle: steriod suspending solution 97 % of control | dose: 800.0 mg/kg/injection, schedule: Q01DX009 (sc), vehicle: other 101 % of control | dose: 1200.0 mg/kg/injection, schedule: Q01DX001 (sc), vehicle: steriod suspending solution 101 % of control | dose: 1600.0 mg/kg/injection, schedule: Q01DX001 (sc), vehicle: steriod suspending solution 100 % of control

Cc1cc(OC(=O)NC2CCCCC2)cc(C)c1Cl
inactive: [6] 95 % of control | [7] 95 % of control | [8] 94 % of control

C\C(=C/C(=N/N=C/c1ccco1)c1ccccc1)c1ccccc1
inactive: dose: 75.0 mg/kg/injection, schedule: Q01DX001 (ip), vehicle: saline 103 % of control | dose: 150.0 mg/kg/injection, schedule: Q01DX001 (ip), vehicle: saline 104 % of control

Cc1ccc(S(=O)(=O)OCCN(CCOS(=O)(=O)c2ccc(C)cc2)c2cc(OCc3ccccc3)cc(OCc3ccccc3)c2)cc1
inactive: dose: 25.0 mg/kg/injection, schedule: Q01DX009 (ip), vehicle: water 100 % of control | dose: 50.0 mg/kg/injection, schedule: Q01DX009 (ip), vehicle: water 121 % of control | dose: 100.0 mg/kg/injection, schedule: Q01DX009 (ip), vehicle: water 89 % of control | dose: 400.0 mg/kg/injection, schedule: Q01DX009 (ip), vehicle: water 95 % of control

CC(C)CC(NS(=O)(=O)Cc1ccccc1)C(=O)O (stereo not given)
inactive: dose: 100.0 mg/kg/injection, schedule: Q01DX001 (ip), vehicle: other 105 % of control | dose: 200.0 mg/kg/injection, schedule: Q01DX001 (ip), vehicle: other 107 % of control | dose: 400.0 mg/kg/injection, schedule: Q01DX001 (ip), vehicle: other 96 % of control

CC(O)C1OC1C(C)O (stereo not given)
inactive: dose: 25.0 mg/kg/injection, schedule: Q04DX002 (ip), vehicle: saline 93 % of control | dose: 50.0 mg/kg/injection, schedule: Q04DX002 (ip), vehicle: saline 101 % of control | dose: 100.0 mg/kg/injection, schedule: Q04DX002 (ip), vehicle: saline 112 % of control

O=C1c2ccccc2C(=O)N1c1cc([N+](=O)[O-])cc([N+](=O)[O-])c1O
inactive: dose: 100.0 mg/kg/injection, schedule: Q01DX001 (ip), vehicle: Klucel (hydroxypropylcellulose) (HPC) 98 % of control | dose: 200.0 mg/kg/injection, schedule: Q01DX001 (ip), vehicle: Klucel (hydroxypropylcellulose) (HPC) 95 % of control | dose: 400.0 mg/kg/injection, schedule: Q01DX001 (ip), vehicle: Klucel (hydroxypropylcellulose) (HPC) 88 % of control

O=[N+]([O-])c1ccc(OCC2CO2)cc1 (stereo not given)
inactive: dose: 100.0 mg/kg/injection, schedule: Q04DX002 (ip), vehicle: gum acacia 100 % of control | dose: 200.0 mg/kg/injection, schedule: Q04DX002 (ip), vehicle: gum acacia 117 % of control | dose: 400.0 mg/kg/injection, schedule: Q04DX002 (ip), vehicle: gum acacia 88 % of control

CN1CCN(CCCN2C(c3ccccc3)C2c2ccccc2)CC1 (stereo not given)
inactive: dose: 50.0 mg/kg/injection, schedule: Q04DX003 (ip), vehicle: saline 101 % of control | dose: 100.0 mg/kg/injection, schedule: Q04DX003 (ip), vehicle: saline 93 % of control | dose: 200.0 mg/kg/injection, schedule: Q04DX003 (ip), vehicle: saline 93 % of control

C[N+](C)(C)C.Cl[Br-]Br
inactive: dose: 6.25 mg/kg/injection, schedule: Q01DX009 (ip), vehicle: alcohol 95 % of control | dose: 12.5 mg/kg/injection, schedule: Q01DX009 (ip), vehicle: alcohol 89 % of control
